In patent US20170334804A1, “F-18 LABELED TRACER AND METHODS OF MANUFACTURE” (The General Hospital Corporation, priority 2014, published 2017):

System: patients with stable coronary artery disease (CAD)
Assay: PET/CT myocardial perfusion imaging in patients with stable CAD, compared with 99mTc Sestamibi SPECT and CTA
Type: in vivo, human
Settings: for detecting areas of reversible myocardial perfusion: PET with FTPP vs SPECT with 99mTc Sestamibi, baseline and post-adenosine
Description: One of the objectives of this study: the PET image properties of FTPP as a myocardial perfusion agent were evaluated in patients with stable coronary artery disease (CAD).
Patients with stable CAD were included in a 3 day study protocol. Safety endpoints included vital signs, 12 lead ECG and clinical laboratory tests. Imaging was performed with Siemens Biograph 64 PET/CT scanner and imaging entailed a CT for positioning, attenuation measurement and evaluation of coronary artery anatomy (day-1). This was followed by baseline and post-adenosine SPECT imaging with ^99mTc Sestamibi. On day 2, 10 mCi of FTPP was administered followed by a second 10 mCi dose of FTPP and PET/CT imaging.

| SMILES | image resolution, stress PET vs stress MIBI SPECT (FIG. 2, person with chest pain) | stress images, detection of ischemia (FIG. 3, stress images) | detecting areas of reversible myocardial perfusion | extraction from blood (patients with stable CAD) | heart uptake over time (patients with stable CAD) | imaging window after injection (patients with stable CAD) | target-to-background ratios (patients with stable CAD) | blood flow imaging properties (patients with stable CAD, preliminary findings) | safety (vital signs, 12 lead ECG, clinical laboratory tests) |
| --- | --- | --- | --- | --- | --- | --- | --- | --- | --- |
| Fc1ccc([P+](c2ccccc2)(c2ccccc2)c2ccccc2)cc1 [FTPP, 4-[^18F]Fluorophenyltriphenylphosphonium ion] | high resolution | confirming ischemia | similarly effective | rapid | stable | ≤ 30 min | high | excellent | safe |
| [C-]#[N+]CC(C)(C)OC.[C-]#[N+]CC(C)(C)OC.[C-]#[N+]CC(C)(C)OC.[C-]#[N+]CC(C)(C)OC.[C-]#[N+]CC(C)(C)OC.[C-]#[N+]CC(C)(C)OC.[Tc] [^99mTc Sestamibi, reference compound] | – | – | similarly effective | – | – | – | – | – | – |
